This note sets out measurements from US4552893A, “Leukotriene antagonists” (SmithKline Beckman Corporation, priority 1983, dated 1985).

The target in this experiment is T1, leukotriene induced contraction of guinea pig tracheal tissues (LTD4) (Cavia porcellus, UniProt Q2NNR5).
T1 construct: Guinea pig (adult male albino Hartley strain) tracheal spiral strips; from tissue; host or cells: guinea pig (adult male albino Hartley strain) tracheal spiral strips
T1 sequence (Q2NNR5 1-340): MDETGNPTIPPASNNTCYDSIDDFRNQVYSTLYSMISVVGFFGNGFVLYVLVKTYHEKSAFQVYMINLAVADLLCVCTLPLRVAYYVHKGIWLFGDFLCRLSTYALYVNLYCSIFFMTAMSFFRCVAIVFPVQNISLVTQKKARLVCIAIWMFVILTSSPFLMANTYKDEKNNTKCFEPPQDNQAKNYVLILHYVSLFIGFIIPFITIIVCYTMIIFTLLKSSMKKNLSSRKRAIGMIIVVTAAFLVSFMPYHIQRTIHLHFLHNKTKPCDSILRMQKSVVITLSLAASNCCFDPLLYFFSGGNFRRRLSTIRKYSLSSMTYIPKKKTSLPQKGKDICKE
In words: Inhibition of LTD4-induced contraction of guinea pig tracheal spiral strips in vitro (leukotriene antagonist activity). The format is cell-based. The following applies: LTD4 cumulative concentration-response, 30 min pretreatment with test compound, meclofenamic acid 1 μM, pA2 = -log KB from EC30 (30% of carbachol contraction). The method, then: The leukotriene antagonist activity of the compounds of this invention is measured by the ability of the compound to inhibit leukotriene induced contraction of guinea pig tracheal tissues in vitro. The following methodology was employed:
In vitro: Guinea pig (adult male albino Hartley strain) tracheal spiral strips of approximate dimensions 2 to 3 mm cross-sectional width and 3.5 cm length were bathed in modified Krebs buffer in jacketed 10 ml tissue bath and continously aerated with 95% O2 /5% CO2. The tissues were connected via silk suture to force displacement transducers for recording isometric tension. The tissues were equilibrated for 1 hr., pretreated for 15 minutes with meclofenamic acid (1 μM) to remove intrinsic prostaglandin responses, and then pretreated for an additional 30 minutes with either the test compound or vehicle control. A cumulative concentration-response curve for LTD4 on triplicate tissues was generated by successive increases in the bath concentration of the LTD4. […]
Calculations: The averages of the triplicate LTD4 concentration-response curves both in the presence and absence of the test compound were plotted on log graph paper. The concentration of LTD4 needed to elicit 30% of the contraction elicited by carbachol was measured and defined as the EC30. The pA2 value for the test compound was determined by the following equations: [formula] […]

In general, Kb refers to the affinity of an antagonist, worked out from how it opposes an agonist. Take `CCCCCCCCCCCC/C=C\C(SCCC(=O)O)C(O)CO` (stereo not shown) [3-[(2-Carboxyethyl)thio]-4(Z)-heptadecen-1,2-diol]: the Kb is 6.31 µM.
